T1: human CRT-ECD protein (OBI Pharma Inc., in-house produced) (human, UniProt P27797 18-417, limits assumed)
T1 construct: extracellular domain; Coated at 200 ng per well for ELISA; also called calreticulin
T1 sequence (looked up): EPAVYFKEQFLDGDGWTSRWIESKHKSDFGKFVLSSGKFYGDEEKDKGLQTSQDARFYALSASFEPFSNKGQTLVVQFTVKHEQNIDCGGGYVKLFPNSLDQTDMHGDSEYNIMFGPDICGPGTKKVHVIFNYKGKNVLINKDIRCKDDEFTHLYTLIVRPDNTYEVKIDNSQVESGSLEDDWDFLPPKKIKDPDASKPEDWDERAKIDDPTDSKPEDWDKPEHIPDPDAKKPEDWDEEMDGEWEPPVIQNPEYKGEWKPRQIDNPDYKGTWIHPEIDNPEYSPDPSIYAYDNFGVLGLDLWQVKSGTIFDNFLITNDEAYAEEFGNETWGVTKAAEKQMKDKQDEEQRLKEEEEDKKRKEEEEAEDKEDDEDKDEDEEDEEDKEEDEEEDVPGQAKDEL


Key:
[1] = test system: Mouse 4T1 breast cancer cells; assay: ATP release to supernatant, CellTiter-Glo Luminescent Assay; type: cell-based; conditions: 100 μM Oxaliplatin for two days
Procedure: Furthermore, supernatants were collected and centrifuged then the ATP in the supernatant was determined by CellTiter-Glo® Luminescent Assay (Promega, Cat #G7570). Briefly, an equal volume of the collected supernatants and reagent were mixed and incubated in the dark for 10 minutes at room temperature. The luminescence was determined by a luminometer (MolecularDevice, SpectraMax L).

[2] = test system: Mouse 4T1 breast cancer cells; assay: Exposure of endogenous danger signals (surface CRT, Hsp70) on tumor cells, flow cytometry; type: cell-based; conditions: 100 μM Oxaliplatin for two days
[3] = test system: Mouse Pan T cells with co-cultured MutuDC 1940 cells and 4T1 cells; assay: T cell proliferation primed by dendritic cell loaded with tumor cell; type: cell-based; conditions: DCs cocultured with 4T1 cells treated with 100 μM Oxaliplatin, T cells 72 hours
Procedure: Then, cells were collected and counted. […] Cells were washed and counted. 5-fold Far Red labeled mouse Pan T cells were added to the co-cultured MutuDC 1940 cells and 4T1 cells for another 72 hours. […] Another CD8^+T-cell proliferation was calculated by gating on CD3^+/CD4^− cells and setting a marker that contained at least 98% of cells in unstimulated samples.

[4] = test system: MutuDC 1940 cells and 4T1 cells; assay: Dendritic cell-mediated phagocytosis of tumor cell; conditions: 4T1 cells treated with 100 μM Oxaliplatin for two days; untreated 31.03%
Procedure: Mouse 4T1 breast cancer cells were labeled with CellTrace™ Far Red staining solution (ThermoFisher, Cat #C34564) at 37° C. for 30 minutes and then washed with PBS. Cells were seeded overnight in a 6-well plate. After cultivating overnight, cells were treated or not with 100 μM Oxaliplatin for two days. Then, cells were collected and counted. An equal number of MutuDC 1940 cells and 4T1 cells were mixed and incubated at 37° C. for the indicated time. After treatment, cells were collected and stained with anti-mouse CD11c-BV421 (Biolegend, Cat #117330) antibody at 4° C. for 30 minutes. Cells were washed and centrifuged, then analyzed by FACS CANTOII. 4T1 cell incorporation in MutuDC 1940 cells evaluated as the percentage of CD11c positive for far-red fluorescence incorporation.

[5] = test system: 4T1 breast cancer cells; conditions: Oxaliplatin 5 mg/kg intravenous, BsAb 20 μg intratumor, days 7, 13 and 20; sacrificed Day 27
Procedure: 1×10^5 4T1 breast cancer cells was injected through subcutaneous injection (s.c. injection) on the right flank of mice in 100 μL sterile PBS. Five mice of each were randomized into three treatment groups on day 7 following tumor inoculation when the tumor size reached 50 mm^3. […] Tumor length, and width were recorded weekly. Tumor volumes were calculated using the formula: volume (mm^3)=([width]^2×length)/2. Results were shown as arithmetic meantstandard error of the mean (SEM). Statistical comparisons were performed by two-tailed Student's t-test. Significance set of probability “p” was set as the level at *p<0.05, **p<0.01, ***, p<0.001. […] Mice were sacrificed at Day 27.

[6] = biological target: T1, human CRT-ECD protein (OBI Pharma Inc., …); assay: ELISA, antigen coated at 200 ng per well, anti-mouse IgG-HRP detection
[7] = test system: oxaliplatin treated 4T1 cells; assay: Cell binding assay (FACS) on oxaliplatin treated tumor cells; set-up: species or system mouse; conditions: 30 nM antibody

Molecule | ATP released to the medium [1] | surface Hsp70 on live 4T1 cells ([2]; untreated 3.2%) [%] | surface CRT on live 4T1 cells ([2]; untreated 6.5%) [%] | proliferation of CD8+ T-cells [3] | DC-mediated phagocytosis of 4T1 cells by MutuDC 1940 cells (percentage of CD11c positive for far-red) [4] [%] | 4T1 tumor growth versus control [5] | EC50 [6] [nM] | binding activity on oxaliplatin treated 4T1 cells [7] [%]
O=C1[O][Pt]2([NH][C@@H]3CCCC[C@H]3[NH]2)[O]C1=O [Oxaliplatin] | increased | 11 | 59 | increased | 43.3 | no difference | – | –
α-CRT antibody 5B3-1 (OBI Pharma, Inc.) (antibody, V domains shown, also called Anti-CRT (5B3-1)) VH: EVQLVETGGGLVQPKGSLKLSCAASGFSFNNNAMNWVRQAPGKGLEWVARIRSKTNNYEIYYAESVKDRFTISRDDSQSMLYLQMNNLKTDDTAMYYCVRDYNHVGFVYWGQGTQVTVST VL: DIVMTQTTPSVPVTPGESVSISCRSSKSLLYSNGNTYLYWFLQRPGQSPQLLIYRMSNLASGVPDRFSGSGSGTAFTLRISRVEAEDVGVYYCMQHLEYPFTFGAGTKLELK | – | – | – | – | – | – | 0.407 | 41.2

Source: US20250320299A1, “BISPECIFIC DENDRITIC CELL ENGAGER AND USES THEREOF” (OBI PHARMA, INC., priority 2021, published 2025)
